The values that follow come from patent publication US8003689B2, “Metabolites of selective androgen receptor modulators and methods of use thereof” (GTx, Inc., priority 2008, dated 2011).

In one data set the test system is CYP3A4. Briefly: CYP3A4 induction in primary human hepatocytes. The data set is classed as in vitro ADME. The procedure: (§1) Cytochrome P450 enzyme inhibition was measured using human, cDNA-expressed CYP3A4, 2D6, 2C19, 2C9, and 1A2 enzymes. Analogues of the model substrate coumarin were utilized for each isozyme, at a concentration near the apparent Km of this substrate. Compound stocks were tested using an 8-point dose-response curve in duplicate (ranging from […]). […] For microsome-based CYP inhibition measurements, all substrates were utilized at the approximate Km value. […] Duplicate wells in the induction assay were used to measure both functionality and expression of the CYP enzyme.

The test system of data set [1] is primary monkey hepatocytes. As to the kind of experiment: Metabolic stability in primary monkey hepatocytes. The data set is classed as in vitro ADME.
Data set [2] can be described thus: Metabolic stability in primary monkey hepatocytes. In kind it is in vitro ADME.
Data set [3] can be described thus: Permeability and efflux potential across Caco-2 monolayers. Further details: Papp A→B / Papp B→A: dose or concentration left out as unconfirmed. The note with it: human. The procedure: (§2) Permeability (and efflux potential) was measured in the Apical (pH 6.5) to Basolateral (pH 7.4) and Basolateral (pH 7.4) to Apical (pH 6.5) directions across polarized, Caco-2 epithelial monolayers. Compound stocks were tested at a final concentration of […]. The concentration of drug in the receiver well was measured by LC/MS/MS using a standard curve.
(In general: Caco-2 cells form a polarised layer with tight junctions and transporters.)

Data set [4] concerns Caco-2 epithelial monolayers. Described as above. Set-up: Papp A→B / Papp B→A: dose or concentration left out as unconfirmed. As for the experimental part: as §2
Data set [5] can be described thus: Metabolic stability in human liver microsomes. The data set is classed as in vitro ADME. As for the experimental part:
Human liver microsomes and hepatocytes were utilized at a final concentration of 1.0 mg/ml and 1×10^6 cells/ml, respectively. Duplicate wells were used for each time point (0, 5, 10, 30, and 60 minutes). The concentrations of parent drug remaining in each well were analyzed on an MDS/Sciex API4000 Q Trap system with electrospray ionization (ESI) in the positive and/or negative SIM mode, depending on the test compound(s). […] For hepatocyte assays, cell viability was also monitored at each time point (from replicate wells) using the Trypan Blue exclusion method.

A further data set has as its system CYP2C9. Briefly: CYP2C9 induction in primary human hepatocytes. The data set is classed as in vitro ADME. As for the experimental part: as §1
The subject of data set [6] is Rat Hepatocytes. As to the kind of experiment: In vitro metabolites of Compound I in rat hepatocytes. The data set is classed as in vitro ADME. The note with it: metabolite formed from Compound I.
A short description of data set [7]: In vitro metabolites of Compound I in rat liver microsomes. The data set is classed as in vitro ADME. Particulars: metabolite formed from Compound I.
Data set [8] can be described thus: Phase I and II microsome reactions (+UDPGA) of Compound II, human. In kind it is in vitro ADME. The note with it: Human liver microsomes (+UDPGA). As for the experimental part: (§3) For microsome reactions performed under conditions allowing for both phase I and II metabolism, the initial procedure and reaction conditions were followed similarly as described above. Additional cofactors were also included in each reaction to maximize the potential for in vitro glucuronidation to occur. UDPGA was added at a final concentration of 5.0 mM. Saccharolactone (β-glucuronidase inhibitor) and alamethicin (pore forming peptide) were added to each reaction at a final concentration of 5.0 mM and 50 μg/ml, respectively.
(§4) Each 200 μl microsomal reaction solution was composed of: 66 μl of 0.2 M KPO4 buffer, (pH 7.4); 50 μl of NRS solution (as described above); 66 μl of UDPGA (15 mM stock); 5.0 μl of saccharolactone (200 mM stock); 0.5 μl of alamethicin (20 mg/ml); 0.6 μl of MgCl2 (1 M stock); and 10 μl of microsomes (20 mg/ml stock).
(§5) At the end of incubation, 100 μl of reaction solution under incubation was transferred to a sample well containing 100 μl of ice cold acetonitrile to quench the reaction. […]
(§6) The mass spectrometers were operated in EMS mode in order to detect all possible metabolites. […] Intensity of putative metabolite was semi-quantitated using the peak area of the metabolites in XIC, which was subtracted with the peak area of time zero control at the same retention time with the metabolites.

Data set [9] in a line: Phase I microsome reactions of Compound II, dog. The data set is classed as in vitro ADME. The note with it: Dog liver microsomes; not absolutely quantitative (n = 2). As for the experimental part: (§7) Test compound stock solutions were prepared in acetonitrile at 10 mM, 200 times (200×) the final concentration. The stock solutions were added in incubation mixtures to obtain the final drug concentration of 50 μM, containing 0.5% acetonitrile. A concentration of 50 μM was utilized to allow for detection of possible minor metabolites (select studies were run at 10 μM for confirmatory purposes). Human, monkey, dog, rat, mouse microsomes were all utilized at a final concentration of 1.0 mg/ml. Duplicate wells were used for each time point (0 and 120 minutes). Incubation was conducted at 37° C. in a shaking water bath. The final volume for each reaction was 200 μl, composed of: 66 μl of 0.2 M KPO4 buffer, (pH 7.4); 73 μl of H2O, 10 μl of 20 mg/ml microsome stock; 1.0 μl of 10 mM compound stock, and 50 μl of NRS solution. The NRS solution consisting of glucose-6-phosphate dehydrogenase, NADP+, MgCl2, and glucose-6-phosphate, was prepared as described in manufacturer's instructions. […]
as §6
(Liver microsomes are vesicles of endoplasmic reticulum, rich in cytochrome P450 enzymes.)

The nature of data set [10]: Phase I and II microsome reactions (+UDPGA) of Compound II, rat. The data set is classed as in vitro ADME. Particulars: Rat liver microsomes (+UDPGA). As for the experimental part:
as §3, §4, §5, §6

The test system of a further data set is monkey hepatocytes. Briefly: Hepatocyte assay of Compound II, monkey. The data set is classed as in vitro ADME. The procedure:
(§8) The stock solutions (10 mM in acetonitrile) for the test compounds were diluted in the incubation media to a working concentration of 100 μM (2×). Thawing frozen hepatocytes was followed by performing Percoll purification as described in manufacturer's manual. Primary hepatocytes were resuspended in incubation media and viability was measured using trypan blue exclusion method. The initial viability score was registered as ‘T0’ (time point of 0 minute), and viability was required to be at least ˜70% at this point for the experiment to continue. Cells were washed a second time (60 g for 5 minutes) with supplemented DMEM and the final concentration was adjusted to […] (2×). Samples were set up in 48-well plates, using 2 wells per each time point. A trypan blue well was also set up for viability analysis at the end of study (T=120 min). 100 μl of the 2× drug solution was combined with 100 μl of the 2× hepatocyte suspension. Final concentration was […] (200,000 cells/well) and 50 μM compound. Final concentration of acetonitrile was 0.5%. […]
as §6

The nature of data set [11]: Phase I microsome reactions of Compound II, monkey. In kind it is in vitro ADME. The note with it: Monkey liver microsomes; not absolutely quantitative (n = 2). As for the experimental part:
as §7, §6

Data set [12] can be described thus: Phase I and II microsome reactions (+UDPGA) of Compound II, dog. Particulars: Dog liver microsomes (+UDPGA). In kind it is in vitro ADME. As for the experimental part:
as §3, §4, §5, §6

Data set [13] in a line: Phase I microsome reactions of Compound II, rat. The data set is classed as in vitro ADME. Particulars: Rat liver microsomes; not absolutely quantitative (n = 2). The procedure:
as §7, §6

Data set [14] can be described thus: Phase I and II microsome reactions (+UDPGA) of Compound II, mouse. The data set is classed as in vitro ADME. Particulars: Mouse liver microsomes (+UDPGA). The procedure:
as §3, §4, §5, §6

The nature of data set [15]: Phase I and II microsome reactions (+UDPGA) of Compound II, monkey. In kind it is in vitro ADME. The note with it: Monkey liver microsomes (+UDPGA). As for the experimental part:
as §3, §4, §5, §6

Another data set concerns human hepatocytes. Briefly: Hepatocyte assay of Compound II, human. In kind it is in vitro ADME. The procedure: as §8, §6
A short description of data set [16]: Phase I microsome reactions of Compound II, human. Particulars: Human liver microsomes; not absolutely quantitative (n = 2). The data set is classed as in vitro ADME. The procedure:
as §7, §6

In another data set the test system is mouse hepatocytes. Briefly: Hepatocyte assay of Compound II, mouse. The data set is classed as in vitro ADME. As for the experimental part:
as §8, §6

Data set [17] deals with Rat Hepatocytes. Briefly: Hepatocyte assay of Compound II, rat. The data set is classed as in vitro ADME. The procedure: as §8, §6
A further data set relates to dog hepatocytes. As to the kind of experiment: Hepatocyte assay of Compound II, dog. In kind it is in vitro ADME. As for the experimental part: as §8, §6
Data set [18] can be described thus: Phase I microsome reactions of Compound II, mouse. Particulars: Mouse liver microsomes; not absolutely quantitative (n = 2). The data set is classed as in vitro ADME. As for the experimental part:
as §7, §6

Setting [19] is: Human Liver Microsomes, Phase I.
Setting [20] is: Human Liver Microsomes, Phase I + II.

On to `C[C@](O)(COc1ccc(C#N)cc1)C(=O)Nc1ccc(C#N)c(C(F)(F)F)c1` [Compound I, (S)—N-(4-cyano-3-(trifluoromethyl)phenyl)-3-(4-cyanophenoxy)-2-hydroxy-2-methylpropanamide], for which the “induction of CYP3A4 activity” value with CYP3A4 is listed as “does not induce”. Also, in data set [1], the Half-Life entry is “Stable”. Moreover, the CLint scaled – broadly, a measure of how fast metabolising enzymes remove a compound, apart from limits set by blood flow – in data set [2] was less than 1 mL/min/kg. Also, the Papp B→A – broadly, the apparent permeability from the basolateral to the apical side of a cell layer – in data set [3] (Caco-2) is 29 ×10⁻⁶ cm/s. In addition, the apical-to-basolateral permeability (Papp A→B) (usually the apparent permeability from the apical to the basolateral side of a cell layer) in data set [3] (Caco-2, Permeability Classification, classified from Papp (A-B)) is more than 10 ×10⁻⁶ cm/s. Also, in data set [4] (Caco-2 permeability assays), the efflux potential result was “low”. Besides, the “Permeability Classification” value in data set [4] (classified from Papp (A-B)) is reported as “high”. Besides, in data set [5] (setting [19]), the “Half-Life Phase I” value is reported as “Stable” and the microsomal CLint (in general, the rate of metabolic loss divided by the concentration) was less than 1000 µL/min/mg. In data set [5] (setting [20]), the “CLint Phase I + II” value was less than 1000 µL/min/mg and the “Half-Life Phase I + II” value was “Stable”. Also, the “in vitro half-life (stability in words)” value in [5] (microsomal and hepatocyte assays, both phase I and phase I/II metabolic conditions) is on record as “mostly stable”. In addition, the “induction of CYP2C9 activity” value in the data set with CYP2C9 is “does not induce”.
For the compound `C[C@@](COc1ccc(C#N)cc1)(OC1OC(C(=O)O)C(O)C(O)C1O)C(=O)Nc1ccc(C#N)c(C(F)(F)F)c1` (stereo partly drawn) [Compound 564], the “relative abundance of in vitro metabolites of Compound I (m/z 388)” value is 0.37 in the data set on Rat Hepatocytes [6] and 1.92 in data set [7].
`N#Cc1ccc(N)cc1Cl` [Compound 151]: the “Relative Percent of XIC for Phase I and Glucuronide Metabolites of Compound II” value in [8] was 0.8%; in data set [10], 1.4%; in [12], 2.9%; in data set [14], 1.1%; in [15], 1.6%. In addition, the “Relative Percent of Extracted Ion Chromatogram (XIC) for Phase I metabolites of Compound II” value in [9] is 6%; in data set [11], 4%; in [13] it was 4%; in data set [16], 3%; in [18], 4%. Moreover, the “Relative Percent of XIC for Phase I and II Metabolites of Compound II” value with monkey hepatocytes was determined as 2.2%; with human hepatocytes, 0.5%; in the data set on mouse hepatocytes it was 0.8%; with Rat Hepatocytes [17] it was 0.9%; in the data set on dog hepatocytes, 4.7%.
